Reference: US5721207A, “Method for treatment of pain” (Innapharma, Inc., priority 1995, dated 1998)
Read-outs that look alike come from different tables or passages of the source.

Legend:
rat [1] = experiment: Rat hot plate test, 10 single daily intrathecal doses of elcatonin over 11 days (Example 12); assay type: in vivo; settings: 4.4 IU/kg intrathecal, 10 daily doses in two 5 day phases (FIG. 8)
Experimental: Intrathecal catheters were implanted in rats as described hereinabove, and a 7-10 day period thereafter allowed for full recovery from the surgical procedures. Nine rats were assigned to three treatment groups of three rats per group. The study is conducted in two 5 day treatment phases separated by a 48 hour nontreatment interval. Treatment Group I rats receive no treatment (sham injection). In each treatment phase, Group II rats received five consecutive daily intrathecal doses of sterile physiological saline (vehicle control), for a total of 10 injections per study treatment.
For each treatment, hot plate latencies are determined as described in Example 5 hereinabove at 0 minutes (predose, baseline), 1 hour, 3 hours, and 24 hours following injection on the 1st, 3rd, 5th, 7th, 9th and 11th study days (Table 4).

rat [2] = test system: rat
Experimental: Intrathecal catheters were surgically implanted in the rats after application of anesthetic (Nembutal, 30 mg/kg, intraperitoneal) 5-7 days prior to the test procedure. The 5-7 day period prior to testing allowed for full recovery from the surgical procedures. […] Each catheter was anchored to the skull with cyanoacrylate adhesive, and the skull was closed with wound clips. The free end of each catheter was heat annealed; when compositions were to be injected via the intrathecal route each composition was introduced therein using a Hamilton needle inserted into the sealed catheter.
Pain sensitivity was assessed using a standard analgesiometric hot plate test (Woolfe and MacDonald (1944) J. Pharmacol. Exp. Ther. 80:300). The hot plate response was determined by placing a rat on a 55° C. copper hot plate enclosed in a plexiglass cylinder.
Because of the technical demands of these experiments, no more than 8-9 rats were tested on a given day. Sufficient animals were studied to obtain 10-11 evaluable rats per test condition. On the study day, animals were tested for baseline hot plate responses, and then received bolus injections of test analgesic or physiological saline (control). Hot plate responses were assessed again at 15 min, 30 min, 1 hr, 3 hr, 6 hr and 24 hr after intrathecal injection of test compound or vehicle control.
Ninety-six (96) rats, ranging in weight from 320 g to 420 g, were used in this study. Catheters were implanted and recovery was allowed for as described hereinabove. […] Drug or saline vehicle doses were administered using Hamilton needles inserted into the catheters, with a dose volumes of 37.5 μL/kg followed by a 10 μL saline catheter wash-out. Baseline (pre-drug) and responses at 15 min, 30 min, 1 hr, 3 hr, 6 hr and 24 hr after drug or vehicle injection were determined.

[3] = intrathecal, 30 min post-injection

## [Des-Cys^1,ASU^7 ]-Calcitonin, Eel [Elcatonin]
Rat [1]
  analgesic effect over time: cumulative analgesic effect over time
  hot plate latency: hot plate latency is increased
Rat [2]; 2.4 IU/kg (0.39 μg/kg, 0.12 nmol/kg) intrathecal single, 0 hr (baseline)
  Hot Plate Latency (Mean ± SEM): 13.54 ± 1.91 s
Rat [2]; 2.4 IU/kg (0.39 μg/kg, 0.12 nmol/kg) intrathecal single, 0.25 hr
  Hot Plate Latency (Mean ± SEM): 19.70 ± 1.75 s
Rat [2]; 2.4 IU/kg (0.39 μg/kg, 0.12 nmol/kg) intrathecal single, 0.5 hr
  Hot Plate Latency (Mean ± SEM): 23.90 ± 3.12 s
Rat [2]; 2.4 IU/kg (0.39 μg/kg, 0.12 nmol/kg) intrathecal single, 1 hr
  Hot Plate Latency (Mean ± SEM): 24.68 ± 1.80 s
Rat [2]; 2.4 IU/kg (0.39 μg/kg, 0.12 nmol/kg) intrathecal single, 3 hr
  Hot Plate Latency (Mean ± SEM): 13.0 ± 0.7 s
Rat [2]; 2.4 IU/kg (0.39 μg/kg, 0.12 nmol/kg) intrathecal single, 6 hr
  Hot Plate Latency (Mean ± SEM): 12.1 s
Rat [2]; 2.4 IU/kg (0.39 μg/kg, 0.12 nmol/kg) intrathecal single, 24 hr
  Hot Plate Latency (Mean ± SEM): 10.8 ± 0.7 s
Rat [2]; 2.4 IU/kg or 0.39 μg/kg intrathecal
  response at the lowest dose: slightly smaller response
Rat [2]; 3.6-6.0 IU/kg intrathecal
  differences in hot plate latencies between doses: no apparent differences in hot plate latencies
Rat [2]; 3.6 IU/kg (0.58 μg/kg, 0.18 nmol/kg) intrathecal single, 0 hr (baseline)
  Hot Plate Latency (Mean ± SEM): 12.92 ± 1.4 s
Rat [2]; 3.6 IU/kg (0.58 μg/kg, 0.18 nmol/kg) intrathecal single, 0.25 hr
  Hot Plate Latency (Mean ± SEM): 21.04 ± 2.22 s
Rat [2]; 3.6 IU/kg (0.58 μg/kg, 0.18 nmol/kg) intrathecal single, 0.5 hr
  Hot Plate Latency (Mean ± SEM): 26.03 ± 3.08 s
Rat [2]; 3.6 IU/kg (0.58 μg/kg, 0.18 nmol/kg) intrathecal single, 1 hr
  Hot Plate Latency (Mean ± SEM): 26.08 ± 3.69 s
Rat [2]; 3.6 IU/kg (0.58 μg/kg, 0.18 nmol/kg) intrathecal single, 3 hr
  Hot Plate Latency (Mean ± SEM): 23.14 ± 3.05 s
Rat [2]; 3.6 IU/kg (0.58 μg/kg, 0.18 nmol/kg) intrathecal single, 6 hr
  Hot Plate Latency (Mean ± SEM): 20.37 s
Rat [2]; 3.6 IU/kg (0.58 μg/kg, 0.18 nmol/kg) intrathecal single, 24 hr
  Hot Plate Latency (Mean ± SEM): 15.79 ± 2.40 s
Rat [2]; 4.4 IU/kg ([…], 0.22 nmol/kg) intrathecal single, 0 hr (baseline)
  Hot Plate Latency (Mean ± SEM): 13.68 ± 1.10 s
Rat [2]; 4.4 IU/kg ([…], 0.22 nmol/kg) intrathecal single, 0.25 hr
  Hot Plate Latency (Mean ± SEM): 21.89 ± 3.12 s
Rat [2]; 4.4 IU/kg ([…], 0.22 nmol/kg) intrathecal single, 0.5 hr
  Hot Plate Latency (Mean ± SEM): 26.03 ± 3.36 s
Rat [2]; 4.4 IU/kg ([…], 0.22 nmol/kg) intrathecal single, 1 hr
  Hot Plate Latency (Mean ± SEM): 26.20 ± 2.37 s
Rat [2]; 4.4 IU/kg ([…], 0.22 nmol/kg) intrathecal single, 3 hr
  Hot Plate Latency (Mean ± SEM): 21.11 ± 2.18 s
Rat [2]; 4.4 IU/kg ([…], 0.22 nmol/kg) intrathecal single, 6 hr
  Hot Plate Latency (Mean ± SEM): 20.02 s
Rat [2]; 4.4 IU/kg ([…], 0.22 nmol/kg) intrathecal single, 24 hr
  Hot Plate Latency (Mean ± SEM): 11.78 ± 1.75 s
Rat [2]; 5.2 IU/kg (0.84 μg/kg, 0.26 nmol/kg) intrathecal single, 0 hr (baseline)
  Hot Plate Latency (Mean ± SEM): 13.41 ± 0.92 s
Rat [2]; 5.2 IU/kg (0.84 μg/kg, 0.26 nmol/kg) intrathecal single, 0.25 hr
  Hot Plate Latency (Mean ± SEM): 27.89 ± 3.10 s
Rat [2]; 5.2 IU/kg (0.84 μg/kg, 0.26 nmol/kg) intrathecal single, 0.5 hr
  Hot Plate Latency (Mean ± SEM): 31.55 ± 4.17 s
Rat [2]; 5.2 IU/kg (0.84 μg/kg, 0.26 nmol/kg) intrathecal single, 1 hr
  Hot Plate Latency (Mean ± SEM): 25.82 ± 3.79 s
Rat [2]; 5.2 IU/kg (0.84 μg/kg, 0.26 nmol/kg) intrathecal single, 3 hr
  Hot Plate Latency (Mean ± SEM): 28.81 ± 3.41 s
Rat [2]; 5.2 IU/kg (0.84 μg/kg, 0.26 nmol/kg) intrathecal single, 6 hr
  Hot Plate Latency (Mean ± SEM): 22.97 s
Rat [2]; 5.2 IU/kg (0.84 μg/kg, 0.26 nmol/kg) intrathecal single, 24 hr
  Hot Plate Latency (Mean ± SEM): 12.36 ± 1.69 s
Rat [2]; 6.0 IU/kg (0.97 μg/kg, 0.30 nmol/kg) intrathecal single, 0 hr (baseline)
  Hot Plate Latency (Mean ± SEM): 11.38 ± 0.89 s
Rat [2]; 6.0 IU/kg (0.97 μg/kg, 0.30 nmol/kg) intrathecal single, 0.25 hr
  Hot Plate Latency (Mean ± SEM): 25.22 ± 4.13 s
Rat [2]; 6.0 IU/kg (0.97 μg/kg, 0.30 nmol/kg) intrathecal single, 0.5 hr
  Hot Plate Latency (Mean ± SEM): 28.91 ± 3.40 s
Rat [2]; 6.0 IU/kg (0.97 μg/kg, 0.30 nmol/kg) intrathecal single, 1 hr
  Hot Plate Latency (Mean ± SEM): 24.48 ± 3.35 s
Rat [2]; 6.0 IU/kg (0.97 μg/kg, 0.30 nmol/kg) intrathecal single, 3 hr
  Hot Plate Latency (Mean ± SEM): 26.60 ± 3.87 s
Rat [2]; 6.0 IU/kg (0.97 μg/kg, 0.30 nmol/kg) intrathecal single, 6 hr
  Hot Plate Latency (Mean ± SEM): 24.69 s
Rat [2]; 6.0 IU/kg (0.97 μg/kg, 0.30 nmol/kg) intrathecal single, 24 hr
  Hot Plate Latency (Mean ± SEM): 11.17 ± 1.80 s
Rat [2]; 6 hours post-injection, all tested doses of elcatonin (0.12-0.30 nmol/kg)
  hot plate analgesia compared with morphine sulfate (49.42-164.73 nmol/kg): more potent hot plate analgesia than all tested doses of morphine sulfate
Rat [2]; intrathecal
  duration of analgesia, elcatonin compared with morphine: generally longer duration of analgesic activity than morphine
  molar concentration producing potent analgesia, lower than morphine sulfate by: approximately 1000 fold
Rat [2]; [3]
  dose approximately equivalent to 164.73 nmol/kg morphine sulfate (125.0 μg/kg): ~0.18 nmol/kg
  dose producing a hot plate latency similar to 98.84 nmol/kg morphine sulfate (75.0 μg/kg): ~0.12 nmol/kg
Rat [2]; intrathecal, all tested doses
  onset of antinociception/analgesia post-injection: ≤ 15 min
Rat [2]; intrathecal, all tested doses (2.4-6.0 IU/kg)
  time of peak antinociception: 30 to 60 min
Rat [2]; rat hot plate, intrathecal
  analgesia compared to intrathecal morphine: dramatically improved analgesia
